This note sets out measurements from paper PMC5377235, “A new target region for changing the substrate specificity of amine transaminases” (Scientific Reports, 2015).

One assay concerns the target T1, ATA-117-Rd11 (Arthrobacter sp. KNK168, UniProt F7J696, S8P/Y60F/L61Y/H62T/V65A/V69T/D81G/M94I/I96L/F122M/S124T/S126T/G136F/Y150S/V152C/A169L/V199I/A209L/G215C/G217N/S223P/L269P/L273Y/T282S/A284G/P297S/S321P).
T1 construct: gene TAS; synthetic gene, pET28a N-His tag, thrombin cleaved; E. coli; homodimer
The assay can be described thus: X-ray crystal structure, […] Å. Type of assay: binding. The settings on record: covalent; internal aldimine.

For assay [1], the target named is T2, Ab-R-ATA (Arthrobacter sp. KNK168, UniProt F7J696).
T2 construct: gene TAS; full length, 330 amino acids, no tag, pUCNT vector, E. coli Rosetta (DE3); homodimer, active site formed with loop 129-145 of the other protomer
In words: HPLC of acetophenone formed, initial kinetics. Type of assay: biochemical. The conditions noted are these: 10 mM (R)-1-phenylethylamine as amino donor, 0.5 mM PLP, 100 mM Tris-HCl pH 8.5, 30 °C. The text has this:
(§1) HPLC of acetophenone formed, initial kinetics on Ab-R-ATA | The kcat/Km values for pyruvate of the R138A and the R138Q mutants

Assay [2] concerns the target T3, Ab-R-ATA (Arthrobacter sp. KNK168, UniProt F7J696, R138Q, form not given).
T3 construct: gene TAS; full length, 330 amino acids, no tag, pUCNT vector, E. coli Rosetta (DE3); homodimer, active site formed with loop 129-145 of the other protomer
In words: HPLC of acetophenone formed, initial kinetics. Type of assay: biochemical. The settings on record: 10 mM (R)-1-phenylethylamine as amino donor, 0.5 mM PLP, 100 mM Tris-HCl pH 8.5, 30 °C.
Description: as §1

For `Cc1ncc(COP(=O)(O)O)c(C=O)c1O` [PLP], on ATA-117-Rd11, the “X-ray crystal structure, 2.20 Å” value was “The cofactor PLP in the active site is shown as green sticks”.

Turning to `CC(=O)C(=O)O` [pyruvate], the Km (usually the concentration of substrate that gives half-maximal velocity) worked out at 5.8 ± 0.1 mM on Ab-R-ATA [1] and 66 ± 3 mM at Ab-R-ATA [2].
